Test results as given in PMC7822816, “Halo-fluorescein for photodynamic bacteria inactivation in extremely acidic conditions” (Nature Communications, 2021).
Several values for one entry are separate records, joined by “and”; a condition that tells them apart may be missing. Equal values may be shown once.

What was measured:
[1] = pH titration of halogenated fluorescein (pH0.5); format: physicochemical; conditions: for lowering of pH0.5 compared with fluorescein: difference to fluorescein (6.09)
Protocol: The pH0.5 values (the pH value when the open form reduce to the half of the maximum) of various fluorescein derivatives were determined experimentally through pH titration (Supplementary Figs. 6–16).
The pH of the solutions were adjusted through varying the ratios of citric acid and Na2HPO4 (pH 2.2–8.0), and further acidity was adjusted with concentrated HCl or 1 M NaOH. The absorption and fluorescence spectra of the resultant solutions were then collected.
Section S5. pH-dependent Properties of the Halogenated Fluoresceins.
S5.1 pH titration of halogenated fluorescein
Fluorescein derivatives (Supplementary Table 1) were dissolved in DMSO to obtain 1 mM stock solutions and then diluted with citric acid-Na2HPO4 buffer (100 mM) to 10
μM. The pH of the solutions were adjusted through varying the ratios of citric acid and Na2HPO4 (pH 2.2-8.0), and further acidity was adjusted with concentrated HCl or 1 M
NaOH. The absorption and fluorescence spectra of the resultant solutions were then

[2] = Relative singlet oxygen quantum yield (1O2 phosphorescence, Rose Bengal standard); format: physicochemical; parameters: key: relative to Rose Bengal standard (ΦΔ = 0.75); conditions: for singlet oxygen quantum yield (ΦΔ): pH = 10 media, relative, RB as the standard; for Singlet oxygen yield (ΦΔ): mixed solvent of D2O and CH3CN (1:15) (Supplementary Table 4)
Protocol: To permit the open-form structure of all fluorescein derivatives, all the measurements were carried out in pH = 10 media.
The singlet oxygen quantum yields (ΦΔ) of all fluorescein-based PSs were evaluated with Rose Bengal as the standard (ΦΔ = 0.75):1 ΦΔ=AsAbsorption/As(Emission)×ARB(Emission)/ARB(Absorption)×0.75 Here, the area of absorption (RB and PSs) was collected with an integrating sphere (λex = 510 nm), while the area of emission was obtained from the characterized 1270 nm ^1O2 phosphorescence emission. For collection of such emission, CH3CN and D2O mixed solvent (v (D2O): v (CH3CN) = 1:15, pH = 9.0, adjusted with 0.001 M NaOH) was used, since H2O can severely quench the singlet oxygen luminescence. For all the measurements, the concentrations of the PSs were set at 10 μM.
S6.3 Relative singlet oxygen quantum yield
The singlet O2 quantum yield of photosensitizers were measured by Fluolog-3 spectrofluorometer with an integration sphere (IS80, Labsphere) and NIR detector (Hamamatsu H-10330) in this work.
For better collection of the characterized singlet oxygen phosphorescence emission (1275 nm), CH3CN and D2O mixed solvent was used (H2O can severely quench the singlet oxygen luminescence). The 10 mM stock solutions in CH3CN and D2O mixed solvent (VCH3CN:VD2O = 15:1) were first prepared. The stock solutions were diluted to 10 μM, and the final volume was 2 mL. In addition, the CH3CN and D2O mixed solvent as blank was also prepared.
1. Turn on the instrument and the start software, the light source is xenon lamp.
2. From the experiment menu, selected spectra, emission. The 1O2 emission phosphorescence spectra are first measured.
3. The parameters setting are listed: a. Excitation wavelength: 510 nm

[3] = Photophysical characterization (absorption, fluorescence, phosphorescence, lifetime); format: physicochemical; conditions: for ΦFL: 5 μM in 0.5% (v/v) DMSO, diluted with 0.1 M NaOH; for λAbs / λPh / λem: 2% DMSO; for τfl: fluorescence lifetime, 5 μM in 0.5% DMSO, 0.1 M NaOH
Protocol: Section S6. Photophysical Characterizations
S6.1 Absorption, fluorescence, and phosphorescence spectra
Fluorescein and its derivatives were dissolved in DMSO to obtain 1 mM stock solutions.
The stock solutions were diluted with deionized water to 10 μM.
Supplementary Figure 20. The absorption (black), fluorescence (blue), and phosphorescence (red, slit 25 nm) spectra of FL.
Supplementary Figure 21. The absorption (black), fluorescence (blue), and phosphorescence (red, slit 25 nm) spectra of DCF.
S6.2 Fluorescence lifetime
Fluorescence decay samples was recorded with Fluorolog-3 (Horiba). The solution of samples were prepared to be 5 μM in 0.5% (v/v) DMSO, and diluted with 0.1M NaOH.
S6.5 Photophysical properties of the halogenated-fluorescein derivatives
Supplementary Table 4. Photophysical Properties of Halogenated-fluorescein derivatives. […]
a Measured in 2% DMSO; b Measured in 2% DMSO citric acid -disodium hydrogen phosphate buffer; c Measured in a mixed solvent of D 2O and CH3CN (VD2O:
VCH3CN = 1: 15); d The solution of samples were prepared to be 5 μM in 0.5% (v/v) DMSO, and diluted with 0.1 M NaOH.

[4] = system: L. plantarum; experiment: Photodynamic inhibition of L. plantarum (coating plate method); format: cell-based, Lactobacillus plantarum; conditions: 0.5 μM photosensitizer, irradiated 10 min, pH 2.5; 620 nm red LED for Zn-tpp and PC
[5] = system: C. albicans; experiment: Fresh food preservation (infected tomato model); parameters: species or system Candida albicans; conditions: 10 μM in pH 3.0 PBS, LED 35 mW/cm^2 10 min (620 nm Zn-tpp, 660 nm Ce 6)
Source text: Besides fruit juices, the potential of TIF for photo-assisted fresh food preservation was also investigated with tomato as the model (pH 3.0). […] Therefore, the food additive TIF is also promising for fresh food preservation.
Tomatoes were selected as the model for photo-assisted fresh food preservation. All the tomatoes were divided into six groups, and made a wound of ~7 cm^2 by hot water. […] Afterward, the tomatoes were stored at room temperature and then subjected to repeated irradiation at day 2. The total viable counts of bacteria on the infected tomatoes were measured in day 3.

[6] = system: C. albicans infection of oral mucosa; conditions: photosensitizer + light (510 nm TIF, 660 nm Ce 6 and Zn-tpp)
Source text: The extremely acidic environment was constructed through changing the pH of the mucosa and diluting PSs in pH 3.0 PBS buffer. […] During the investigations, the infected ICR mice were divided into six groups (six mice per group): blank, light, TIF, TIF + light, Ce 6 + light, and Zn-tpp + light. For comparison and better visualization of the infection, a normal group (no infection) was also included.
To construct the oral mucosal infection model, cotton balls immersed in solutions containing 10^8 CFU/mL of C. albicans were placed in the mouth of mice for 75 min. At day 1 and day 3, 50 μL pH 3.0 PBS and PSs (20 μM, diluted by pH 3.0 PBS) were added to oral mucosa, and treated with different lasers (510 nm for TIF, 660 nm for Ce 6 and Zn-tpp, 50 mW/cm^2) for 10 min.
To investigate the therapy effect, photographs, colonies, weights, and pathology index of mice were taken every other day. After day 3, one mouse in each group was sacrificed, and the tissues of oral mucosa were harvested for hematoxylin and eosin (H&E) staining. The pathology index was evaluated based on the standard given in Supplementary Table 10.

[7] = system: MRSA; conditions: dose 100 mg/L, 360 J/cm2; cited from earlier work
[8] = parameters: method as in PMID 10546544; conditions: Rose Bengal as the standard; cited from earlier work
[9] = system: E.coli; conditions: dose 0.5 μM, 20 min; cited from earlier work
[10] = 2% DMSO citric acid-disodium hydrogen phosphate buffer (Supplementary Table 4)
[11] = pH value when the open form reduces to half of the maximum, pH titration, 10 μM, citric acid–Na2HPO4 buffer

Compound	pH0.5 [1, 10]	lowering of pH0.5 compared with fluorescein [1]	pH0.5 [1, 11]	singlet oxygen quantum yield (ΦΔ) [2]	kdec [3]	knr [3]	krad [3]	ΦFL [3]	λAbs [3]	λPh [3]	λem [3]	τfl [3]	antimicrobial activity (survival rate of L. plantarum) [4]	wound infection of tomatoes, with light [5]	H&E staining of tongue sections, with light [6]	Singlet oxygen yield (ΦΔ) [2]	Inhibition ratio [7]	singlet oxygen quantum yield (ΦΔ) of the standard [8]	Inhibition ratio [9]
O=C(O)c1c(Cl)c(Cl)c(Cl)c(Cl)c1-c1c2ccc(=O)cc-2oc2cc(O)ccc12 [TCF-2, Tetrachloro-fluorescein-2]	5.89	0.16 units	5.89 and 5.93	0.05	2.05e+08 s⁻¹	3e+07 s⁻¹	1.75e+08 s⁻¹	0.854	511 nm	637 nm	531 nm	4.87 ns	–	–	–	–	–	–	–
C1=Cc2nc1c(-c1ccccc1)c1ccc([n-]1)c(-c1ccccc1)c1nc(c(-c3ccccc3)c3ccc([n-]3)c2-c2ccccc2)C=C1.[Zn+2] [Zn-tpp, Zinc(II) tetraphenylporphyrin, reference compound]	–	–	–	–	–	–	–	–	–	–	–	–	no obvious antimicrobial activity	different magnitudes of wound infection	large amounts of inflammation infiltration	–	–	–	–
O=C(O)c1ccccc1-c1c2ccc(=O)c(Br)c-2oc2c(Br)c(O)ccc12 [DBF, Dibromo-fluorescein]	4.63	–	4.63 and 4.52	0.19	5.03e+08 s⁻¹	3.5e+08 s⁻¹	1.52e+08 s⁻¹	0.303	504 nm	685 nm	531 nm	1.99 ns	–	–	–	0.26	–	–	–
CN(C)c1ccc2nc3ccc(=[N+](C)C)cc-3sc2c1 [Methylene Blue]	–	–	–	–	–	–	–	–	–	–	–	–	–	–	–	–	4.7 log10	–	–
Fluorescein	6.09	–	6.09	0.01	2.18e+08 s⁻¹	3.1e+07 s⁻¹	1.87e+08 s⁻¹	0.858	491 nm	638 nm	515 nm	4.58 ns	–	–	–	–	–	–	–
O=C(O)c1ccccc1-c1c2ccc(=O)c(I)c-2oc2c(I)c(O)ccc12 [DIF, Diiodo-fluorescein]	4.13	–	4.13	0.63	1e+11 s⁻¹	9.99e+10 s⁻¹	1e+08 s⁻¹	0.001	527 nm	699 nm	549 nm	0.01 ns	–	–	–	–	–	–	–
C=Cc1c(C)c2cc3nc(c(CC(=O)O)c4[nH]c(cc5nc(cc1[nH]2)C(C)=C5CC)c(C)c4C(=O)O)[C@@H](CCC(=O)O)[C@@H]3C [Ce 6, reference compound]	–	–	–	–	–	–	–	–	–	–	–	–	–	different magnitudes of wound infection	large amounts of inflammation infiltration	–	–	–	–
O=C(O)c1c(Cl)c(Cl)c(Cl)c(Cl)c1-c1c2cc(I)c(=O)c(I)c-2oc2c(I)c(O)c(I)cc12 [RB, Tetraiodo-tetrachloro-fluorescein]	3.99	–	3.99	0.75	1e+11 s⁻¹	9.97e+10 s⁻¹	3e+08 s⁻¹	0.003	550 nm	732 nm	570 nm	0.01 ns	–	–	–	0.75	–	0.75	–
O=C(O)c1c(Cl)c(Cl)c(Cl)c(Cl)c1-c1c2cc(Cl)c(=O)c(Cl)c-2oc2c(Cl)c(O)c(Cl)cc12 [OCF, Octachloro-fluorescein]	3.41	–	3.41	0.11	2.31e+08 s⁻¹	9.3e+07 s⁻¹	1.38e+08 s⁻¹	0.597	537 nm	676 nm	556 nm	4.33 ns	–	–	–	0.11	–	–	–
O=C(O)c1ccccc1-c1c2cc(Cl)c(=O)c(Cl)c-2oc2c(Cl)c(O)c(Cl)cc12 [TCF-1, Tetrachloro-fluorescein-1]	2.79	3.30 units	2.79	0.06	2.44e+08 s⁻¹	7.8e+07 s⁻¹	1.66e+08 s⁻¹	0.680	515 nm	655 nm	536 nm	4.09 ns	–	–	–	0.06	–	–	–
[Ru(bpy)2(dppn)]2+	–	–	–	–	–	–	–	–	–	–	–	–	–	–	–	–	–	–	5.4 log10
O=C(O)c1c(Cl)c(Cl)c(Cl)c(Cl)c1-c1c2cc(Br)c(=O)c(Br)c-2oc2c(Br)c(O)c(Br)cc12 [PB, Tetrabromo-tetrachloro-fluorescein]	3.45	–	3.45	0.26	8e+08 s⁻¹	6.64e+08 s⁻¹	1.36e+08 s⁻¹	0.170	539 nm	730 nm	560 nm	1.25 ns	–	–	–	–	–	–	–
Dichloro-fluorescein [DCF]	4.77	–	4.77	0.04	2.31e+08 s⁻¹	7.7e+07 s⁻¹	1.54e+08 s⁻¹	0.668	502 nm	645 nm	529 nm	4.33 ns	–	–	–	–	–	–	–
